ChEMBL document CHEMBL4602621, “Optimization of cyclic sulfamide derivatives as 11β-hydroxysteroid dehydrogenase 1 inhibitors for the potential treatment of ischemic brain injury” (Bioorg Med Chem Lett, 2020)
Calls of active or inactive are those of the source. No cut-off for these calls is given here.

Tests used:
[1] = molecular target: 11-beta-hydroxysteroid dehydrogenase 1 (Mus musculus, UniProt P50172); assay: Inhibition of mouse 11beta-HSD1 expressed in CHOK1 cells using XL665-labeled cortisol as substrate measured after 24 hrs by HTRF assay; type: cell-based, CHO-K1
Chain of 11-beta-hydroxysteroid dehydrogenase 1 (Mus musculus, UniProt P50172) (P50172 whole entry): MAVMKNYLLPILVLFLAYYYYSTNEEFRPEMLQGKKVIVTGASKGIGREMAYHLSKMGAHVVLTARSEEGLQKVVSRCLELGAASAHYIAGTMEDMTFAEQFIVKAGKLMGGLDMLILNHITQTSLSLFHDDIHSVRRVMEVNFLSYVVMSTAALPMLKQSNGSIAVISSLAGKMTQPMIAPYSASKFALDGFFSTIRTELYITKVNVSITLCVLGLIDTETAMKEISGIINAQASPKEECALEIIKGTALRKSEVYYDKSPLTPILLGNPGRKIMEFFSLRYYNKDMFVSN

[2] = molecular target: 11-beta-hydroxysteroid dehydrogenase 1 (Mus musculus) (UniProt P50172); assay: In vivo inhibition of 11 beta-HSD1 in brain of mouse at 20 mg/kg, po relative to control; type: functional, organism-based
Chain of 11-beta-hydroxysteroid dehydrogenase 1 (Mus musculus) (P50172 whole entry, looked up): as the sequence (P50172 whole entry) above

[3] = molecular target: 11-beta-hydroxysteroid dehydrogenase 1 (Mus musculus) (UniProt P50172); assay: In vivo inhibition of 11 beta-HSD1 in brain of mouse at 30 mg/kg, po relative to control; type: functional, organism-based
[4] = Drug level in brain of mouse at 10 mg/kg, ip administered as single dose measured at 3 hrs; type: ADME, organism-based; details: read-out: Drug uptake
[5] = molecular target: 11-beta-hydroxysteroid dehydrogenase 1 (Homo sapiens, UniProt P28845); assay: Inhibition of human 11beta-HSD1 expressed in CHOK1 cells using XL665-labeled cortisol as substrate measured after 24 hrs by HTRF assay; type: cell-based, CHO-K1
Chain of 11-beta-hydroxysteroid dehydrogenase 1 (Homo sapiens, UniProt P28845) (P28845 whole entry, the tested form may be a part): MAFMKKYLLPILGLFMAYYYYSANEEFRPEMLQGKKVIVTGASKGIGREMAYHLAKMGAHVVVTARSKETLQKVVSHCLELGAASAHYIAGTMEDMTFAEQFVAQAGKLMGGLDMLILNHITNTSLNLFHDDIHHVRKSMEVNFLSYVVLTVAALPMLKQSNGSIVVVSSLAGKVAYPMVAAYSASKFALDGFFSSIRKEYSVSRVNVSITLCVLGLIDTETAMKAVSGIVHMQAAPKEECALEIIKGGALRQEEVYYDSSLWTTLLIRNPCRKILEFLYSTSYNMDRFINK

Mus musculus [6] = assay: (§1) Neuroprotective activity in mouse model of middle cerebral artery occlusion-induced ischemia-reperfusion injury assessed as cerebral infarct volume at 10 mg/kg, ip administered twice at 1 to 5 hrs post induction of ischemia followed by 24 hrs of reperfusion by TTC staining based assay (reference value: 90.3 +/- 6 mm3); type: functional
Mus musculus [7] = assay: Neuroprotective activity in mouse model of middle cerebral artery occlusion-induced ischemia-reperfusion injury assessed as reduction in cerebral infarct area at 10 to 30 mg/kg, ip administered twice at 1 to 5 hrs post induction of ischemia followed by 24 hrs of reperfusion by TTC staining based assay; type: functional, organism-based
[8] = Drug level in brain of mouse at 10 mg/kg, ip administered as single dose measured at 0.5 hrs; type: ADME, organism-based; details: read-out: Drug uptake
[9] = Drug level in plasma of mouse at 10 mg/kg, ip administered as single dose measured at 0.5 hrs; type: ADME, organism-based
[10] = Ratio of drug concentration in brain to plasma of mouse at 10 mg/kg, ip administered as single dose measured at 0.5 hrs; type: ADME, organism-based; details: read-out: BPR
[11] = molecular target: 11-beta-hydroxysteroid dehydrogenase 1 (Mus musculus) (UniProt P50172); assay: Ex vivo inhibition of 11 beta-HSD1 in brain of iv dosed mouse by measuring cortisol amount after 1 hr by ELISA; type: functional, organism-based
[12] = Drug level in plasma of mouse at 10 mg/kg, ip administered as single dose measured at 3 hrs; type: ADME, organism-based
Mus musculus [13] = assay: as §1, with “30” for “10”; type: functional
[14] = Ratio of drug concentration in brain to plasma of mouse at 10 mg/kg, ip administered as single dose measured at 3 hrs; type: ADME, organism-based; details: read-out: BPR

| Compound | IC50 [1] [nM] | inhibition [2] [%] | other results |
| --- | --- | --- | --- |
| CC1CN(CC(=O)NC2C3CC4CC2CC(C(N)=O)(C4)C3)S(=O)(=O)N(c2c(Cl)cc(-c3ccccc3)cc2Cl)C1 (stereo not given) | 174 | – | – |
| CC1CN(CC(=O)NC2C3CC4CC2CC(C(N)=O)(C4)C3)S(=O)(=O)N(c2c(Cl)cc(Br)cc2Cl)C1 (stereo not given) | – | 41.1 | – |
| CC1CN(CC(=O)NC2C3CC4CC2CC(C(N)=O)(C4)C3)S(=O)(=O)N(c2c(Cl)cc(Cl)cc2Cl)C1 (stereo not given) | 2 | – | inhibition [3]: 66% |
| CCC1CN(CC(=O)NC2C3CC4CC2CC(C(N)=O)(C4)C3)S(=O)(=O)N(c2c(Cl)cc(C(F)(F)F)cc2Cl)C1 (stereo not given) | 695 | – | – |
| NC(=O)C12CC3CC(C1)C(NC(=O)CN1CCCN(c4c(Cl)cc(C(F)(F)F)cc4Cl)S1(=O)=O)C(C3)C2 (stereo not given) | – | 45.8 | – |
| CC1CN(CC(=O)NC2C3CC4CC2CC(C(N)=O)(C4)C3)S(=O)(=O)N(c2c(Cl)cc(C(F)(F)F)cc2Cl)C1 (stereo not given) | 1 | 82 | concentration at 3 h [4]: 670 ng/mL; IC50 [5]: 1 nM; Activity (Mus musculus [6]): 66.2 mm3; Activity (Mus musculus [7]): Active; concentration at 0.5 h [8]: 1780 ng/mL; concentration at 0.5 h [9]: 4770 ng/mL; Kp at 0.5 h [10]: 0.38; inhibition [11]: Dose-dependent effect; concentration at 3 h [12]: 1310 ng/mL; Activity (Mus musculus [13]): 59 mm3; Kp at 3 h [14]: 0.53 |
| CC(C)C1CN(CC(=O)NC2C3CC4CC2CC(C(N)=O)(C4)C3)S(=O)(=O)N(c2c(Cl)cc(C(F)(F)F)cc2Cl)C1 (stereo not given) | 2800 | – | – |
| CC1CN(CC(=O)NC2C3CC4CC2CC(C(N)=O)(C4)C3)S(=O)(=O)N(c2ccc(C(F)(F)F)cn2)C1 (stereo not given) | 940 | – | – |
| Cc1cc(Cl)c(N2CC(C)CN(CC(=O)NC3C4CC5CC3CC(C(N)=O)(C5)C4)S2(=O)=O)c(Cl)c1 (stereo not given) | 3.7 | 69 | – |
| CC1CN(CC(=O)NC2C3CC4CC2CC(C(N)=O)(C4)C3)S(=O)(=O)N(c2c(Cl)cc(-c3ccco3)cc2Cl)C1 (stereo not given) | 68 | – | – |
| CC1CN(CC(=O)NC2C3CC4CC2CC(C(N)=O)(C4)C3)S(=O)(=O)N(c2ccccn2)C1 (stereo not given) | 1210 | – | – |
